Measurements taken from patent US20120316192A1, “SUBSTITUTED INDOLO [2,3-A] QUINOLIZINES” (priority 2011, published 2012).

What was measured:
all cell lines but Saos2 = assay: Apo-ONE homogeneous caspase-3/7 assay (apoptosis), summary statement; assay type: cell-based; conditions: all cell lines but Saos2, 42 h
Method: (§1) HeLa human cervical carcinoma cell line, the human breast cancer cell line MCF7, the African green monkey kidney cell line BS-C-1 and the human colorectal carcinoma cell lines HCT116 and SW480 were maintained in Dulbecco's Modified Eagle's medium (DMEM, PAA, Pasching Austria). The colorectal cell line HT29 was cultured in McCoy's 5A medium (PAA, Pasching, Austria). The prostate carcinoma cells PC3 and the osteosarcoma cells Saos2 were cultured in RPMI medium (PAA, Pasching Austria). All media were supplemented with 10% fetal calf serum, L-glutamine, penicillin and streptomycin. All cell lines were maintained at 37° C. in a 5% CO2 humidified atmosphere.
(§2) Therefore we measured the caspase-3/7 activity in different cell lines with the Apo-ONE® homogeneous caspase-3/7 assay.
(§3) Caspase-3/7 activities were determined using the Apo-ONE® homogeneous caspase-3/7 assay (Promega, Mannheim Germany) according to the manufacturer's protocol. Briefly, cells were plated in quadruplicates in 384-well cell culture plate. After 24 hours cells were exposed for 42 hours to the compounds at different concentrations. Control cells were treated with 0.5% DMSO or staurosporine (STS). Subsequently cells were lysed with a lysis buffer containing the caspase-3/7 substrate Z-DEVD-R110 and were incubated at room temperature until further analysis. The fluorescence was detected with the TECAN Inifinite® M200 plate reader at excitation/emission wavelength 485/520 nm. The blank value was subtracted from each value and the relative caspase-3/7 activity was calculated compared to the DMSO treated cells.
(§4) These findings correlate with our results from the cell viability assays for these indoloquinolizine.

[1] = test system: colorectal cell line HT29; assay: WST-1 cell viability and proliferation assay; assay type: cell-based; conditions: HT29, 3.125 up to 50 μM, 19 h
Method: as §1
(§5) The cell proliferation was determined as a function of the metabolic activity by means of the cell proliferation reagent WST-1 (Roche, Mannheim Germany). Cells were plated in quadruplicates into the wells of 96 well plates and were allowed to attach for 24 hours. Cells were then treated with different concentrations of the compounds for 19 hours. All samples contained 0.5% DMSO. Control cells were treated with 0.5% DMSO or 20 μM doxorubicin or 1 μM staurosporine. After the treatment the WST-1 reagent was added to the cells according to the manufacturer's protocol. The absorbance was measured with the TECAN Inifinite® M200 plate reader at 450/690 nm. The blank value was subtracted from each value and the percentage of viable cells was determined compared to the DMSO treated cells.
(§6) The biological activity of the indoloquinolizines was evaluated in different cell lines by means of WST-1 assay. Cells were treated with different compound concentrations (3.125 up to 50 μM) for 19 h. In HeLa cells the (−)-enantiomers of 1-01 and 1-04 caused the most dramatic decrease in cell proliferation rate with increasing concentrations (FIG. 3). At 50 μM concentration (−)-1-01 reduced the cell proliferation rate to 60% and (−)-1-04 to 67% (FIG. 3).

osteosarcoma cells Saos2 = assay: WST-1 cell viability and proliferation assay; assay type: cell-based; conditions: Saos2, 3.125 up to 50 μM, 19 h
Method: as §1, §5, §6

[2] = test system: prostate carcinoma cells PC3; assay: WST-1 cell viability and proliferation assay; assay type: cell-based; conditions: PC3, 3.125 up to 50 μM, 19 h
Method: as §1, §5, §6

PC3 cell line = assay: Apo-ONE homogeneous caspase-3/7 assay (apoptosis); assay type: cell-based; conditions: PC3, 42 h of treatment
Method: as §1, §2, §3, §4

Saos2 cells = assay: Apo-ONE homogeneous caspase-3/7 assay (apoptosis); assay type: cell-based; conditions: Saos2, 42 h of treatment
Method: as §1, §2, §3, §4

HT29 cell line = assay: Apo-ONE homogeneous caspase-3/7 assay (apoptosis); assay type: cell-based; conditions: HT29, 42 h of treatment
Method: as §1, §2, §3, §4

HeLa cells [3] = assay: WST-1 cell viability and proliferation assay; assay type: cell-based, human; conditions: 19 h; for cell proliferation rate (percent of DMSO control): 50 μM; for IC50: calculated from two and three experiments respectively
Method: as §1, §5, §6

HeLa cells [4] = assay: Apo-ONE homogeneous caspase-3/7 assay (apoptosis); assay type: cell-based, human; conditions: 42 h of treatment
Method: as §1, §2, §3, §4

HCT116 cells = assay: Apo-ONE homogeneous caspase-3/7 assay (apoptosis); assay type: cell-based, human; conditions: HCT116, 42 h of treatment
Method: as §1, §2, §3, §4

HeLa cells [5] = assay: FACS analysis of the cell cycle (propidium iodide DNA content); assay type: cell-based, human; conditions: for cells in G1 phase / cells in G2/M phase: 24 h after treatment; for mitotic index: DMSO control 0.16
Method: HeLa human cervical carcinoma cell line, the human breast cancer cell line MCF7, and the human colorectal carcinoma cell line SW480 were maintained in Dulbecco's Modified Eagle's medium (DMEM, PAA, Pasching Austria). The colorectal cell line HT29 was cultured in McCoy's 5A medium (PAA, Pasching, Austria). DMEM medium was supplemented with 10% fetal calf serum, sodium pyruvate, non-essential amino acids, penicillin and streptomycin, McCoy's 5A medium was supplemented with 10% fetal calf serum, penicillin and streptomycin. All cell lines were cultured at 37° C. in a 5% CO2 humidified atmosphere. Further, fluorescent activated cell sorting (FACS) was used successfully to analyze the cell cycle and mitotic arrest under the influence of indoloquinolizines. HeLa cells were fixed and stained for FACS analysis 24 h after compound treatment. Cells were trypsinized and combined with any floating cells, pelleted, and resuspended in 1 ml PBS. Ice cold ethanol (70%) was added, and samples were incubated at −20° C. until analysis. After fixation the cells were pelleted, resuspended in 500 μl staining solution (50 μg/ml propidium iodide, 0.1 mg/ml RNase A, 0.05% Triton X-100) and incubated for 40 min at 37° C. 3 ml PBS were added; the cells were pelleted again and resuspended in 500 μl PBS. The DNA content was measured with a Becton Dickinson LSRII and analyzed with FlowJo 7.5 software. The cell cycle of compound treated HeLa cells was analyzed by fluorescence activated cell sorting (FIG. 1). […] A similar distribution is given in (−)-1-01 treated cells (FIGS. 1c and 1d); here 9% are in G1 and 38% in G2/M phase (25 μM) respectively; 8% in G1 and 40% in G2/M phase (50 μM). This means that the mitotic index is increased by more than two fold (from 0.16 to 0.38 respectively 0.40), indicating a mitotic arrest after compound treatment.

Row | Structure (SMILES) | impact on the apoptosis (all cell lines but Saos2) | reduction in cell viability [1] | decrease in the proliferation rate compared with HeLa (osteosarcoma cells Saos2) | reduction in cell viability [2] | caspase-3/7 activity detected (PC3 cell line) | activation of caspase-3/7 (Saos2 cells) | caspase-3/7 activity detected (HT29 cell line) | cell proliferation rate (percent of DMSO control) (HeLa cells [3]) [%] | IC50 (HeLa cells [3]) [µM] | activation of caspase-3/7 (HeLa cells [4]) | activation of caspase-3/7 (HCT116 cells) | cells in G1 phase (HeLa cells [5]; 25 μM) [%] | cells in G2/M phase (HeLa cells [5]; 25 μM) [%] | mitotic index (HeLa cells [5]; 25 μM) | cells in G1 phase (HeLa cells [5]; 50 μM) [%] | cells in G2/M phase (HeLa cells [5]; 50 μM) [%] | mitotic index (HeLa cells [5]; 50 μM) | IC50 (HeLa cells [3]; Homo sapiens) [µM]
1 | COC(=O)C1=CC(C(=O)c2ccccc2O)=CN2CCc3c([nH]c4ccccc34)C12C(=O)OC (single isomer, unassigned; (-)) [(−)-1-01, Dimethyl-3-(2-hydroxybenzoyl)-6,7,12,12b-tetrahydroindolo[2,3a]quinolizine-1,12b-dicarboxylate] | did not have any impact on the apoptosis | only a slight reduction in cell viability | more dramatic | only a slight reduction in cell viability | only at the 50 μM concentration | concentration dependent increase | only at the 50 μM concentration | 60 | 28.4 ± 0.61 | concentration dependent increase | concentration dependent increase | 9 | 38 | 0.38 | 8 | 40 | 0.40 | –
2 | COC(=O)C1=CC(C(=O)c2ccccc2O)=CN2CCc3c([nH]c4ccc(OC)cc34)C12C(=O)OC (single isomer, unassigned; (-)) [(−)-1-04, Dimethyl-3-(2-hydroxybenzoyl)-9-methoxy-6,7,12,12b-tetrahydro-indolo[2,3-a]quinolizine-1,12b-dicarboxylate] | did not have any impact on the apoptosis | only a slight reduction in cell viability | more dramatic | only a slight reduction in cell viability | only at the 50 μM concentration | concentration dependent increase | only at the 50 μM concentration | 67 | – | concentration dependent increase | concentration dependent increase | – | – | – | – | – | – | 15.7 ± 1.43
